# Measured values published in ChEMBL document CHEMBL1201862, “PubChem BioAssay data set” (2004).
#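 Growth conditions: 96-well plates. Treatment: test compound, 48 hours, 5 concentrations. Analysis: linear interpolation between bracketing concentrations; unreached endpoints set to highest concentration. GI50 = concentration required for 50% inhibition of growth.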 Calls of active or inactive are those of the source. No stated cut-off is given here; in the data, active = GI50 up to about 1.1 µM and inactive = higher.
# What was measured:
# Experiment in all cases: NCI-60 cell line screen, 48 h
# NCI-H226 = system: NCI-H226
# SN12C = system: SN12C
# SF-268 = system: SF-268
# U-251 = system: U-251
# SF-539 = system: SF-539
# MCF7 = system: MCF7
# HT-29 = system: HT-29
# MDA-MB-231 = system: MDA-MB-231
# TK-10 = system: TK-10
# SNB-19 = system: SNB-19
# NCI-H460 = system: NCI-H460
# DU-145 = system: DU-145
# OVCAR-5 = system: OVCAR-5
# EKVX = system: EKVX
# 786-0 = system: 786-0
# M14 = system: M14
# A498 = system: A498
# CAKI-1 = system: CAKI-1
# Malme-3M = system: Malme-3M
# SK-MEL-28 = system: SK-MEL-28
# HCT-116 = system: HCT-116
# LOX IMVI = system: LOX IMVI
# OVCAR-8 = system: OVCAR-8
# MOLT-4 = system: MOLT-4
# SK-MEL-5 = system: SK-MEL-5
# HCC 2998 = system: HCC 2998
# HCT-15 = system: HCT-15
# Hs-578T = system: Hs-578T
# BT-549 = system: BT-549
# HOP-62 = system: HOP-62
# ACHN = system: ACHN
# RXF 393 = system: RXF 393
# HOP-92 = system: HOP-92
# UO-31 = system: UO-31
# SR = system: SR
# PC-3 = system: PC-3
# KM12 = system: KM12
# SK-MEL-2 = system: SK-MEL-2
# UACC-257 = system: UACC-257
# UACC-62 = system: UACC-62
# IGROV-1 = system: IGROV-1
# NCI-H23 = system: NCI-H23
# MDA-N = system: MDA-N
# T47D = system: T47D
# SNB-75 = system: SNB-75
# COLO 205 = system: COLO 205
# SW-620 = system: SW-620
# HL-60 = system: HL-60
# A549 = system: A549
# NCI/ADR-RES = system: NCI/ADR-RES
# MDA-MB-435 = system: MDA-MB-435
# NCI-H522 = system: NCI-H522
# OVCAR-4 = system: OVCAR-4
# RPMI-8226 = system: RPMI-8226
# SF-295 = system: SF-295
# K562 = system: K562
# OVCAR-3 = system: OVCAR-3
# CCRF-CEM = system: CCRF-CEM
# SK-OV-3 = system: SK-OV-3
structure (smiles),measurement,setting,value
Cc1ccc2nc(-c3nccn3C)cc(C(=O)NC(C)CN(C)C)c2c1 (stereo not given),GI50,NCI-H226,98.6 µM (inactive)
same,GI50,SN12C,> 100 µM (inactive)
same,GI50,SF-268,> 100 µM (inactive)
same,GI50,U-251,> 100 µM (inactive)
same,GI50,SF-539,26.1 µM (inactive)
same,GI50,MCF7,63 µM (inactive)
same,GI50,HT-29,72.6 µM (inactive)
same,GI50,MDA-MB-231,> 100 µM (inactive)
same,GI50,TK-10,> 100 µM (inactive)
same,GI50,SNB-19,> 100 µM (inactive)
same,GI50,NCI-H460,24.9 µM (inactive)
same,GI50,DU-145,> 100 µM (inactive)
same,GI50,OVCAR-5,> 100 µM (inactive)
same,GI50,EKVX,> 100 µM (inactive)
same,GI50,786-0,> 100 µM (inactive)
same,GI50,M14,> 100 µM (inactive)
same,GI50,A498,> 100 µM (inactive)
same,GI50,CAKI-1,> 100 µM (inactive)
same,GI50,Malme-3M,> 100 µM (inactive)
same,GI50,SK-MEL-28,> 100 µM (inactive)
same,GI50,HCT-116,> 100 µM (inactive)
same,GI50,LOX IMVI,91.2 µM (inactive)
same,GI50,OVCAR-8,> 100 µM (inactive)
same,GI50,MOLT-4,> 10 µM (inactive)
same,GI50,SK-MEL-5,97.9 µM (inactive)
same,GI50,HCC 2998,> 10 µM (inactive)
same,GI50,HCT-15,55.1 µM
same,GI50,Hs-578T,> 100 µM (inactive)
same,GI50,BT-549,> 100 µM (inactive)
same,GI50,HOP-62,34.9 µM (inactive)
same,GI50,ACHN,60 µM (inactive)
same,GI50,RXF 393,> 100 µM (inactive)
same,GI50,HOP-92,46.3 µM (inactive)
same,GI50,UO-31,92.7 µM (inactive)
same,GI50,SR,0.711 µM (active)
same,GI50,PC-3,25.3 µM (inactive)
same,GI50,KM12,> 100 µM (inactive)
same,GI50,SK-MEL-2,> 100 µM (inactive)
same,GI50,UACC-257,> 100 µM (inactive)
same,GI50,UACC-62,> 100 µM (inactive)
same,GI50,IGROV-1,> 100 µM (inactive)
same,GI50,NCI-H23,> 100 µM (inactive)
same,GI50,MDA-N,> 100 µM (inactive)
same,GI50,T47D,> 100 µM (inactive)
same,GI50,SNB-75,> 100 µM (inactive)
same,GI50,COLO 205,> 100 µM (inactive)
same,GI50,SW-620,> 100 µM (inactive)
same,GI50,HL-60,10.1 µM (inactive)
same,GI50,A549,89.9 µM (inactive)
same,GI50,NCI/ADR-RES,> 100 µM (inactive)
same,GI50,MDA-MB-435,> 100 µM (inactive)
CCOC(=O)C1=CN(Cc2ccccc2)C2ON=C(c3ccc(Cl)cc3)C2C1 (stereo not given),GI50,NCI-H226,> 56.2 µM (inactive)
same,GI50,SN12C,> 52 µM (inactive)
same,GI50,SF-268,> 42.1 µM (inactive)
same,GI50,U-251,13.5 µM (inactive)
same,GI50,SF-539,> 55 µM (inactive)
same,GI50,NCI-H522,10.4 µM (inactive)
same,GI50,MCF7,23.6 µM (inactive)
same,GI50,HT-29,48.6 µM (inactive)
same,GI50,OVCAR-4,42 µM (inactive)
same,GI50,RPMI-8226,22 µM (inactive)
same,GI50,MDA-MB-231,10.6 µM (inactive)
same,GI50,TK-10,> 60.5 µM (inactive)
same,GI50,SNB-19,> 100 µM (inactive)
same,GI50,NCI-H460,40.5 µM (inactive)
same,GI50,DU-145,> 55 µM (inactive)
same,GI50,OVCAR-5,34.4 µM (inactive)
same,GI50,EKVX,20.6 µM (inactive)
same,GI50,786-0,54.7 µM (inactive)
same,GI50,M14,> 54.7 µM (inactive)
same,GI50,A498,> 42.6 µM (inactive)
same,GI50,SF-295,45.6 µM (inactive)
same,GI50,CAKI-1,> 52.6 µM (inactive)
same,GI50,Malme-3M,> 55 µM (inactive)
same,GI50,SK-MEL-28,> 56.2 µM (inactive)
same,GI50,HCT-116,19.9 µM (inactive)
same,GI50,K562,5 µM (inactive)
same,GI50,LOX IMVI,> 57.5 µM (inactive)
same,GI50,OVCAR-3,39.3 µM (inactive)
same,GI50,OVCAR-8,> 54 µM (inactive)
same,GI50,MOLT-4,5.4 µM (inactive)
same,GI50,SK-MEL-5,16.5 µM (inactive)
same,GI50,HCC 2998,> 100 µM (inactive)
same,GI50,HCT-15,> 32.4 µM
same,GI50,Hs-578T,11.6 µM (inactive)
same,GI50,BT-549,32.4 µM (inactive)
same,GI50,HOP-62,> 55.5 µM (inactive)
same,GI50,ACHN,31 µM (inactive)
same,GI50,RXF 393,38.6 µM (inactive)
same,GI50,HOP-92,18.8 µM (inactive)
same,GI50,UO-31,26.9 µM (inactive)
same,GI50,SR,> 23.9 µM (inactive)
same,GI50,PC-3,> 36.6 µM (inactive)
same,GI50,KM12,48.2 µM (inactive)
same,GI50,SK-MEL-2,15.2 µM (inactive)
same,GI50,UACC-257,33.3 µM (inactive)
same,GI50,CCRF-CEM,9.1 µM (inactive)
same,GI50,SK-OV-3,> 63.7 µM (inactive)
same,GI50,UACC-62,17.1 µM (inactive)
same,GI50,IGROV-1,29.5 µM (inactive)
same,GI50,NCI-H23,35 µM (inactive)
same,GI50,MDA-N,17.9 µM (inactive)
same,GI50,T47D,5.61 µM (inactive)
same,GI50,SNB-75,44.3 µM (inactive)
same,GI50,COLO 205,> 51.3 µM (inactive)
same,GI50,SW-620,> 52.5 µM (inactive)
same,GI50,HL-60,23.4 µM (inactive)
same,GI50,A549,17.6 µM (inactive)
same,GI50,NCI/ADR-RES,> 54.6 µM (inactive)
same,GI50,MDA-MB-435,29 µM (inactive)
